Measurements as given in PubChem BioAssay AID248 (DTP/NCI, 2004).
Values joined by “and” are separate entries in the source; they are usually repeats but may differ in a detail not shown here. Identical values can stand only once. Toxic doses and inconclusive results are not listed. Rule as the data show it: active = T/C of 150% or more; inactive = T/C below 125%.

Tested on: L1210 leukemia ip in BDF1 mice, survival T/C
Assay: NCI In Vivo Anticancer Drug Screen. Data for tumor model L1210 Leukemia (intraperitoneal) in B6D2F1 (BDF1) mice
Conditions: endpoint: mean survival time, higher = longer survival
Outline: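 Transplantable tumor model; survival measured in treated vs vehicle control mice. Value = treated/control.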

[1] = dose: 100.0 mg/kg/injection, schedule: Q01DX001 (ip), vehicle: Klucel (hydroxypropylcellulose) (HPC)
[2] = dose: 100.0 mg/kg/injection, schedule: Q01DX009 (ip), vehicle: Klucel (hydroxypropylcellulose) (HPC)
[3] = dose: 100.0 mg/kg/injection, schedule: Q04DX002 (ip), vehicle: Klucel (hydroxypropylcellulose) (HPC)
[4] = dose: 100.0 mg/kg/injection, schedule: Q04DX003 (ip), vehicle: Klucel (hydroxypropylcellulose) (HPC)
[5] = dose: 200.0 mg/kg/injection, schedule: Q01DX001 (ip), vehicle: Klucel (hydroxypropylcellulose) (HPC)
[6] = dose: 200.0 mg/kg/injection, schedule: Q01DX009 (ip), vehicle: Klucel (hydroxypropylcellulose) (HPC)
[7] = dose: 200.0 mg/kg/injection, schedule: Q04DX002 (ip), vehicle: Klucel (hydroxypropylcellulose) (HPC)
[8] = dose: 200.0 mg/kg/injection, schedule: Q04DX003 (ip), vehicle: Klucel (hydroxypropylcellulose) (HPC)
[9] = dose: 400.0 mg/kg/injection, schedule: Q01DX009 (ip), vehicle: Klucel (hydroxypropylcellulose) (HPC)
[10] = dose: 400.0 mg/kg/injection, schedule: Q04DX002 (ip), vehicle: Klucel (hydroxypropylcellulose) (HPC)
[11] = dose: 400.0 mg/kg/injection, schedule: Q04DX003 (ip), vehicle: Klucel (hydroxypropylcellulose) (HPC)
[12] = dose: 100.0 mg/kg/injection, schedule: Q04DX003 (ip), vehicle: saline with Tween-80
[13] = dose: 200.0 mg/kg/injection, schedule: Q04DX003 (ip), vehicle: saline with Tween-80
[14] = dose: 400.0 mg/kg/injection, schedule: Q04DX003 (ip), vehicle: saline with Tween-80
[15] = dose: 100.0 mg/kg/injection, schedule: Q01DX001 (ip), vehicle: carboxymethylcellulose (CMC)
[16] = dose: 200.0 mg/kg/injection, schedule: Q01DX001 (ip), vehicle: carboxymethylcellulose (CMC)
[17] = dose: 400.0 mg/kg/injection, schedule: Q01DX001 (ip), vehicle: carboxymethylcellulose (CMC)
[18] = dose: 100.0 mg/kg/injection, schedule: Q01DX001 (ip), vehicle: saline
[19] = dose: 200.0 mg/kg/injection, schedule: Q01DX001 (ip), vehicle: saline
[20] = dose: 100.0 mg/kg/injection, schedule: Q01DX009 (ip), vehicle: saline with Tween-80
[21] = dose: 200.0 mg/kg/injection, schedule: Q01DX009 (ip), vehicle: saline with Tween-80
[22] = dose: 400.0 mg/kg/injection, schedule: Q01DX009 (ip), vehicle: saline with Tween-80
[23] = dose: 25.0 mg/kg/injection, schedule: Q01DX009 (ip), vehicle: water
[24] = dose: 50.0 mg/kg/injection, schedule: Q01DX009 (ip), vehicle: water

Measured: T/C

CCOP(=O)(Oc1ccc([N+](=O)[O-])cc1)c1cccc(Cl)c1 (stereo not drawn)
inactive: dose: 5.0 mg/kg/injection, schedule: Q01DX001 (ip), vehicle: saline 102 % of control | dose: 10.0 mg/kg/injection, schedule: Q01DX001 (ip), vehicle: saline 111 % of control

Cc1ccc([N+](=O)[O-])cc1NC(=O)N1CCCCC1C (stereo not drawn)
inactive: [1] 97 % of control | [2] 106 % of control and 90 % of control | [3] 97 % of control and 102 % of control | [4] 100 % of control | [5] 111 % of control | [6] 92 % of control and 97 % of control | [7] 97 % of control and 104 % of control | [8] 88 % of control | dose: 400.0 mg/kg/injection, schedule: Q01DX001 (ip), vehicle: Klucel (hydroxypropylcellulose) (HPC) 101 % of control | [9] 108 % of control and 87 % of control | [10] 93 % of control and 102 % of control | [11] 104 % of control

CC(=O)NC1CCCCC1
inactive: [12] 95 % of control | [13] 98 % of control | [14] 92 % of control

CC12CCC(O)CC1CCC1C2CCC2(C)C(c3ccc(=O)oc3)C(O)C3OC132 (stereo not drawn)
inactive: dose: 1.87 mg/kg/injection, schedule: Q01DX009 (ip), vehicle: Klucel (hydroxypropylcellulose) (HPC) 105 % of control | dose: 3.5 mg/kg/injection, schedule: Q01DX009 (ip), vehicle: Klucel (hydroxypropylcellulose) (HPC) 96 % of control | dose: 7.0 mg/kg/injection, schedule: Q01DX009 (ip), vehicle: Klucel (hydroxypropylcellulose) (HPC) 91 % of control

O=C(Nc1ccc(Cl)cc1)Oc1ccc(Br)cc1Br
inactive: [2] 100 % of control | [6] 96 % of control | [9] 104 % of control

CCCCCCC(C)OC(=O)CCl (stereo not drawn)
inactive: [12] 102 % of control | [13] 104 % of control | [14] 109 % of control

CCCCC(CC)CCC(O)CCC(CC)CC (stereo not drawn)
inactive: [4] 102 % of control | [8] 98 % of control | [11] 102 % of control

Oc1cccc(/C=N/Nc2nnc(N/N=C/c3cccc(O)c3)c3ccccc23)c1
inactive: dose: 50.0 mg/kg/injection, schedule: Q01DX001 (ip), vehicle: carboxymethylcellulose (CMC) 108 % of control | [15] 101 % of control | [16] 98 % of control | [17] 96 % of control

CCC(C)c1ccc(OCCO)cc1 (stereo not drawn)
inactive: [18] 97 % of control | [19] 90 % of control

O=P(OCc1ccccc1)(OCc1ccccc1)C(Nc1ccccc1)c1ccccc1 (stereo not drawn)
inactive: dose: 50.0 mg/kg/injection, schedule: Q01DX009 (ip), vehicle: Klucel (hydroxypropylcellulose) (HPC) 100 % of control | [2] 103 % of control | [4] 100 % of control | [6] 103 % of control | [8] 94 % of control | [11] 93 % of control

C1=CC2CC1C1CC21 (stereo not drawn)
inactive: dose: 75.0 mg/kg/injection, schedule: Q01DX001 (ip), vehicle: saline 100 % of control | dose: 150.0 mg/kg/injection, schedule: Q01DX001 (ip), vehicle: saline 96 % of control | dose: 300.0 mg/kg/injection, schedule: Q01DX001 (ip), vehicle: saline 96 % of control

CCOC(=O)CNC(=O)Oc1ccc(NC(C)=O)cc1
inactive: [20] 100 % of control | [21] 95 % of control | [22] 108 % of control

NC(=S)N/N=C\c1c[nH]c2nccnc12
inactive: [23] 108 % of control | [24] 97 % of control | dose: 100.0 mg/kg/injection, schedule: Q01DX009 (ip), vehicle: water 102 % of control | dose: 200.0 mg/kg/injection, schedule: Q01DX009 (ip), vehicle: water 90 % of control | dose: 400.0 mg/kg/injection, schedule: Q01DX009 (ip), vehicle: water 88 % of control

O=C/C=C/c1cc([N+](=O)[O-])ccc1Cl
inactive: [3] 100 % of control | [7] 96 % of control | [10] 100 % of control

CC(C)(C)CC(=O)OCCC[N+](C)(C)C
inactive: [23] 104 % of control | [24] 106 % of control

COc1cccc(CNc2ccc(SC)cc2)c1OC
inactive: [2] 97 % of control | [4] 94 % of control | [6] 105 % of control | [8] 91 % of control | [9] 94 % of control | [11] 91 % of control

O=C1C(=O)c2ccccc2C=C1Br
inactive: [4] 94 % of control | [8] 95 % of control

COc1cc2c(C)cc(=O)oc2cc1O
inactive: [15] 98 % of control | [17] 93 % of control

C=CCNC(=S)NN
inactive: dose: 6.25 mg/kg/injection, schedule: Q04DX003 (ip), vehicle: Klucel (hydroxypropylcellulose) (HPC) 115 % of control | dose: 12.5 mg/kg/injection, schedule: Q04DX003 (ip), vehicle: Klucel (hydroxypropylcellulose) (HPC) 95 % of control

COc1ccc(C(=O)CBr)cc1OC
inactive: [15] 96 % of control

CC(NC(=O)c1ccccc1)C(=O)Nc1ccccc1 (stereo not drawn)
inactive: [3] 101 % of control | [7] 114 % of control | [10] 108 % of control

CCCCCCCN=C(N)c1ccc(C(=O)OCc2ccccc2)cc1
inactive: [18] 94 % of control | [19] 90 % of control

COc1ccc(OC)c(CC(C)O)c1 (stereo not drawn)
inactive: [15] 101 % of control | [16] 101 % of control | [17] 98 % of control

CCN(CC)CCN1c2cc(C)ccc2Sc2ccc3ccccc3c21
inactive: dose: 100.0 mg/kg/injection, schedule: Q01DX001 (sc), vehicle: olive oil, sesame oil, peanut oil 101 % of control | dose: 100.0 mg/kg/injection, schedule: Q01DX009 (sc), vehicle: olive oil, sesame oil, peanut oil 101 % of control | dose: 100.0 mg/kg/injection, schedule: Q04DX003 (sc), vehicle: olive oil, sesame oil, peanut oil 110 % of control | dose: 200.0 mg/kg/injection, schedule: Q01DX001 (sc), vehicle: olive oil, sesame oil, peanut oil 100 % of control | dose: 200.0 mg/kg/injection, schedule: Q01DX009 (sc), vehicle: olive oil, sesame oil, peanut oil 118 % of control | dose: 200.0 mg/kg/injection, schedule: Q04DX003 (sc), vehicle: olive oil, sesame oil, peanut oil 110 % of control | dose: 400.0 mg/kg/injection, schedule: Q01DX001 (sc), vehicle: olive oil, sesame oil, peanut oil 101 % of control | dose: 400.0 mg/kg/injection, schedule: Q04DX003 (sc), vehicle: olive oil, sesame oil, peanut oil 113 % of control

c1ccc(CSCCSCc2ccccc2)cc1
inactive: dose: 87.5 mg/kg/injection, schedule: Q01DX009 (ip), vehicle: other 95 % of control | dose: 175.0 mg/kg/injection, schedule: Q01DX009 (ip), vehicle: other 101 % of control | dose: 350.0 mg/kg/injection, schedule: Q01DX009 (ip), vehicle: other 104 % of control

O=c1[nH]nc(-c2ccc(Cl)cc2Cl)s1
inactive: [4] 95 % of control | [8] 101 % of control | [11] 112 % of control

Nc1ccc(N=Nc2ccc(S(=O)(=O)O)cc2)cc1
inactive: [20] 87 % of control | [21] 95 % of control | [22] 97 % of control

COc1ccc(C2(C#N)CCCCC2)cc1
inactive: [2] 109 % of control | [4] 97 % of control | [6] 98 % of control | [8] 100 % of control | [9] 94 % of control | [11] 101 % of control

CC1=CC(=O)C=CC1(C)C(Cl)Cl (stereo not drawn)
inactive: [12] 107 % of control | [13] 100 % of control | [14] 97 % of control

O=C1C=C(c2ccccc2)c2cccc3cccc1c23
inactive: dose: 50.0 mg/kg/injection, schedule: Q01DX001 (ip), vehicle: Klucel (hydroxypropylcellulose) (HPC) 98 % of control | [1] 87 % of control | [5] 92 % of control

O=C(NCCCO)C1C(c2ccccc2)C1c1ccccc1 (stereo not drawn)
inactive: dose: 100.0 mg/kg/injection, schedule: Q04DX002 (ip), vehicle: saline with Tween-80 108 % of control | dose: 200.0 mg/kg/injection, schedule: Q04DX002 (ip), vehicle: saline with Tween-80 102 % of control | dose: 400.0 mg/kg/injection, schedule: Q04DX002 (ip), vehicle: saline with Tween-80 102 % of control

N#CCOC(=O)c1ccc[nH]1
inactive: dose: 10.0 mg/kg/injection, schedule: Q01DX001 (ip), vehicle: acetone 101 % of control | dose: 20.0 mg/kg/injection, schedule: Q01DX001 (ip), vehicle: acetone 100 % of control | dose: 40.0 mg/kg/injection, schedule: Q01DX001 (ip), vehicle: acetone 97 % of control
